Molecules are shown by their SMILES. “And” between values parts separate entries of the source, which are not always exact repeats. Identical values can stand only once. Like-named read-outs stand apart in the source and are kept apart here.

Here are results for four molecules from article PMC8750417, “Intracellular Amplifiers of Reactive Oxygen Species Affecting Mitochondria as Radiosensitizers” (Cancers, 2021).

What all share (assay type): cell-based, human
The subject of data set [1] is A2780 cells. The experiment in a line: Cell viability, MTT assay, A2780. The protocol: (§1) Determination of viability of cells in the presence of prodrugs and controls A2780 and BL-2 cells The medium was removed, and the cells were washed two times with DPBS, trypsinated, and resuspended in RPMI 1640 medium (A2780) supplemented with 5% FBS (for 24 h and 48 h assay) or 10% FBS (for 96 h assay) , 1% L-glutamine, and 1% penicillin/streptomycin.
(§2) A2780 cells: This suspension was spread in the wells of a 96 -well microtiter plate (25000 cells for A2780 per well per 100 μL) and left standing at 37 °C in the chamber filled with CO2 (5%) for overnight. Stock solutions of prodrugs of different concentra tions (1 μL, solvent dmso, final concentrations in wells were 2, 5, 10, 30, 50 μM) were added to the wells and incubated for specific periods of time. Four experiments were conducted for each concentration of the prodrug. Finally, 3-(4,5-dimethylthiazol-2-yl)-2,5-diphenyltetrazolium bromide (MTT, 20 μL of the solution prepared by dissolving MTT (5 mg) in DPBS buffer (1 mL)) was added to each well, incubated for 3 h, treated with sodium dodecyl sulfate (SDS) solution (90 μL, 10% solution in 0.01 M aqueous HC l), and incubated overnight. Afterward, the intensity of the absorbance at 590 nm was measured.
(§3) MTT is converted in live cells to blue dye with the absorbance maximum λ max at 590 nm.
The absorbance at 690 nm was taken as a baseline value. The baseline corrected absorbance at 590 nm (A(590 nm) − A(690 nm)) was applied to calculate the relative number of viable cells. IC50 values were determined by fitting the experimental data expressing the number of viable cells (%, Y-axis) versus drug concentration (μM, X-axis) with a line curve and the X-axis value corresponding to 50% viability was considered as IC50 value according to the line curve (Figure S50, Table S2). […]
In general terms: Formazan colour is commonly taken as a measure of viable cells.

In a further data set the test system is FaDu cells. Kind of data set: Cytotoxicity MTT assay, FaDu. Conditions: for EC50: read-out: 50% cell survival (EC50). As to the method: (§4) Optimization of concentration of prodrugs and controls / MTT assay
(§5) The MTT assay was also applied to assess the impact of various drugs (0.01-100 µM) on the viability of the two human head and neck squamous carcinoma cell (HNSCC) lines SAS and FaDu as well as retinal pigment epithelial ARPE-19 cells and human fibroblasts (HF). Cells were seeded into 96-well plates at concentrations of 4000 and 2000 cells per […]
(§6) h before exposure to the drugs. All drug dilutions were prepared from 20 mM stock solutions in DMSO. The final DMSO concentration was set to 0.5% in all sample s including control. After completion of the treatment, the wells were processed according to the routine MTT protocol as described above; the formazan absorbance was then measured on a Biotek Epoch Microplate Spectrophotometer at 590 nm and corrected for the background signal at 620 nm. N≥3 independent experiments were performed for each drug candidate, cell type and treatment interval. Cell survival was recorded as function of the drug concentration, and dose-response curves were fitted with the Boltzmann equation where appropriate. We calculated the half-maximal response (EC50) as well as the EC20 (80% survival) according to the line curve (see Tables S6-S8). EC20-values were used as a basis to select the compound-specific non-toxic drug concentrations for combination with radiotherapy.

Data set [2] deals with A2780 cells. The experiment in a line: Organelle-specific staining in A2780 cells (R123 MMP, AO lysosomes, ER, Golgi). Conditions: for effect on lysosomes (LY), endoplasmic reticulum (ER) and Golgi (GO) staining: A2780, 30 µM, 1-4 h; for MMP compared to the MMP of untreated cells: R123. The protocol: Effect of prodrugs and controls on cellular organelles in A2780 cells: lysosomes (LY), endoplasmic reticulum (ER), Golgi (G) and mitochondria (Mit) (Figures 3, S56) A2780 cells were seeded in RPMI 1640 medium containing 5% FBS, 1% L-glutamine and 1% penicillin/streptomycin in a 24-well microtiter plate (total volume 0.5 mL) at a density of 200 cells/µL one day before the experiment. On the day of the experiment, prodrugs (“LY/ER/G”-experiments: stock solution - 3 mM, 5 µL, final concentration: 30 µM; “Mit”- experiment: stock solutions - 0.5, 1 and 3 mM, 5 µL, final concentrations: 5, 10, 30 µM) or carrier only (DMSO, 1%, v/v) were added to cells and incubated for 1, 4 and 24 h in a dark chamber filled with CO2 (5 %) at 37 °C. The cells were washed twice with DPBS buffer and the medium was replaced with HBSS (Hanks' Balanced Salt solution, 500 μL).
Stock solutions of different dyes (5 µL) were added: concentrations of the stock solutions were 4 mg/L for Acridine orange (AO), 10 mg/L for Rhodamine 123 (R123), 1 µM for ER-Tracker-Green (ERG) and 10 µM for Golgi-Staining-Green (GO). […]
Final concentrations of solutions were 40 µ g/L for AO, 100 µ g/L for R123, 0.01 µ M for ERG and 0.1 µ M for GO. The cells were incubated in the dark chamber filled with CO 2 (5%) at 37 ° C for 20 min. Afterwards the supernatant was removed, the cells were washed with DPBS buffer twice and detached from the culture dish using t rypsin/EDTA (0.025%/0.01%, v/v, 200 µ L). Next, the cells were re -suspended in fresh medium. Finally, the fluorescence of live cells (the number of total events was 5000, λex = 488 nm, λ em = 530 nm) in the suspensions was determined by using flow cytometry (N=3, Figure 3, S56).
Figure S56. Effects of the prodrugs on mitochondria membrane potential (MMP) of A2780 cell lines after 1 -48 h incubation. *: p< 0.05; **: p< 0.01; ***: p< 0.001 , Student’s t test. […]
reference (labelled on the plot). […]

In another data set the test system is BL-2 cells. Kind of data set: Cell viability, MTT assay, BL-2. The protocol: as §1, §2, §3
The absorbance at 690 nm was taken as a baseline value. The baseline corrected absorbance at 590 nm (A(590 nm) − A(690 nm)) was applied to calculate the relative number of viable cells. IC50 values were determined by fitting the experimental data expressing the number of viable cells (%, Y-axis) versus drug concentration (μM, X-axis) with a line curve and the X-axis value corresponding to 50% viability was considered as IC50 value according to the line curve (Figure S50, Table S2).
BL-2 cells: The cells were centrifuged, the medium was removed, and the cells were washed two times with DPBS and re-suspended in RPMI 1640 medium containing 5% (48 h incubation) or 10% FBS (96 h incubation), 1% L-glutamine, and 1% penicillin/ streptomycin. This suspension was spread in the wells of a 96-well microtiter plate (50000 cells per well per 100 μL). Other steps were identical to those was described in determination of viability of adherent cells (given above) (Table S3).

In the next data set the test system is SAS cells. The experiment in a line: Cytotoxicity MTT assay, SAS. The conditions noted are these: for EC50: read-out: 50% cell survival (EC50). The protocol: as §4, §5, §6

On to `CC1(C)OB(c2ccc(COC(=O)N(Cc3cccc(CN4CCCCC4)c3)[c-]3cccc3)cc2)OC1(C)C.[Fe+2].c1cc[cH-]c1` [5b], for which the IC50 in the data set with A2780 cells [1] (A2780, 48 h incubation) came out at 7 ± 2 µM; with A2780 cells [1] (A2780, 96 h incubation), 7 ± 2 µM; in the data set on BL-2 cells (BL-2, 48 h incubation), 5 ± 2 µM; with BL-2 cells (BL-2, 96 h incubation) it was 5 ± 3 µM. Further, the “80% cell survival (EC20)” value in the data set with FaDu cells (24h) stood at 11.5 ± 1.3 µM; in the data set on SAS cells (24h), 7.0 ± 1.5 µM; with SAS cells (48h), 2.4 ± 1.3 µM. Also, the EC50 in the data set with FaDu cells (24h) is 26.3 ± 3.4 µM; in the data set on FaDu cells (48h), 19.8 ± 0.3 µM; with SAS cells (24h), 18.7 ± 4.7 µM; in the data set with SAS cells (48h), 5.8 ± 0.8 µM. Also, the “effect on lysosomes (LY), endoplasmic reticulum (ER) and Golgi (GO) staining” value with A2780 cells [2] was “strongly affected lysosomes”.
On to `CCOC(=O)CCCCCn1cc(CN(C(=O)OCc2ccc(B3OC(C)(C)C(C)(C)O3)cc2)[c-]2cccc2)nn1.[Fe+2].c1cc[cH-]c1` [compound 1], for which the IC50 in the data set on A2780 cells [1] (A2780, 48 h incubation) is 32 ± 3 µM; with A2780 cells [1] (A2780, 96 h incubation) it was 30 ± 5 µM; in the data set with BL-2 cells (BL-2, 48 h incubation), 35 ± 2 µM; in the data set on BL-2 cells (BL-2, 96 h incubation) it was 16.9 µM and 17 µM.
Take `CC1(C)OB(c2ccc(COC(=O)N(Cc3cn(Cc4ccc(Cn5cc(Cc6ccccc6)nn5)cc4)nn3)[c-]3cccc3)cc2)OC1(C)C.[Fe+2].c1cc[cH-]c1` [2c]: the “cell viability at which the effect is saturated” value in the data set on A2780 cells [1] (A2780, 24 h) came to 70%; with A2780 cells [1] (A2780, 48 h), 50%; with A2780 cells [1] (A2780, 96 h) it was 43%. The IC50 with A2780 cells [1] (A2780, 24 h incubation) is > 30 µM; in the data set with A2780 cells [1] (A2780, 48 h incubation), > 30 µM; in the data set with A2780 cells [1] (A2780, 96 h incubation) it was 4 ± 0.5 µM; in the data set on BL-2 cells (BL-2, 48 h incubation), 40.1 ± 6.4 µM; in the data set on BL-2 cells (BL-2, 96 h incubation), 5.7 ± 2.7 µM. In addition, the “80% cell survival (EC20)” value with FaDu cells (24h) is recorded as > 50 µM; in the data set with FaDu cells (48h) it was 18.0 ± 5.1 µM; in the data set on SAS cells (24h), > 50 µM; in the data set on SAS cells (48h), 10.4 ± 6.8 µM. In addition, the EC50 with FaDu cells (24h), in the data set with FaDu cells (48h), in the data set with SAS cells (24h) and with SAS cells (48h) was > 50 µM throughout. For the same molecule, in the data set with A2780 cells [2], the “effect on lysosomes (LY), endoplasmic reticulum (ER) and Golgi (GO) staining” value was “affected neither LY nor ER nor GO”. The “MMP compared to the MMP of untreated cells” value is on record as 69 ± 11% in the data set with A2780 cells [2] (A2780, 1 h incubation) and 30 ± 5% with A2780 cells [2] (A2780, 24 h incubation).
As to `[Fe+2].c1cc[cH-]c1.c1cc[cH-]c1` [compound 6, ferrocene], the IC50 in the data set on A2780 cells [1] (A2780, 24 h incubation) is > 100 µM; in the data set with A2780 cells [1] (A2780, 48 h incubation), > 100 µM; with A2780 cells [1] (A2780, 96 h incubation), > 100 µM; in the data set on BL-2 cells (BL-2, 48 h incubation), > 100 µM; in the data set on BL-2 cells (BL-2, 96 h incubation), > 100 µM. Moreover, the “80% cell survival (EC20)” value in the data set with FaDu cells (24h), in the data set with FaDu cells (48h), in the data set on SAS cells (24h) and in the data set on SAS cells (48h) was > 50 µM each time. In addition, the EC50 with FaDu cells (24h), in the data set on FaDu cells (48h), in the data set on SAS cells (24h) and with SAS cells (48h) was > 50 µM in each case.

By IC50 is commonly meant the concentration that inhibits the measured activity by half. Lower therefore signals inhibition by little substance. In general, EC50 refers to the concentration that produces a half-maximal response. The cell viability is a per cent measure of how many cells are alive, often set against a control. A higher cell viability goes with less harm to the cells.
